Results on 13 compounds are retold here after patent US20080176870A1, “Heterobicyclic metalloprotease inhibitors” (priority 2006, published 2008).

SMILES strings stand for the structures.

For this assay, the target named is T1, catalytic domain of MMP-13 enzyme (Homo sapiens, UniProt P45452).
T1 construct: 10 μL of a 50 nM stock solution of catalytic domain of MMP-13 enzyme (produced by Alantos)
The experiment in a line: Assay for determining MMP-13 inhibition (fluorescent substrate). The settings on record: Table 1, Summary of MMP-13 Activity for Compounds; read-out: MMP-13 Activity (IC50 MMP-13), Group. Format: biochemical. As to the method: Assay for Determining MMP-13 Inhibition
The typical assay for MMP-13 activity is carried out in assay buffer comprised of 50 mM Tris, pH 7.5, 150 mM NaCl, 5 mM CaCl2 and 0.05% Brij-35. Different concentrations of tested compounds are prepared in assay buffer in 50 μL aliquots. 10 μL of a 50 nM stock solution of catalytic domain of MMP-13 enzyme (produced by Alantos) is added to the compound solution. The mixture of enzyme and compound in assay buffer is thoroughly mixed and incubated for 10 min at room temperature. Upon the completion of incubation, the assay is started by addition of 40 μL of a 12.5 μM stock solution of MMP-13 fluorescent substrate (Calbiochem, Cat. No. 444235). The time-dependent increase in fluorescence is measured at the 320 nm excitation and 390 nm emission by automatic plate multireader. The IC50 values are calculated from the initial reaction rates.
Turning to `Cc1c(C(=O)O)ccc2c1CCC2NCc1cc(C(=O)NCc2ccc(F)c(F)c2)nc2ccnn12` (stereo not shown) [Example 29, 1-{[5-(3,4-difluoro-benzylcarbamoyl)-pyrazolo[1,5-a]pyrimidin-7-ylmethyl]-amino}-4-methyl-indan-5-carboxylic acid], the half-inhibitory concentration (IC50) is < 0.2 µM.

Take `Cc1c(C(=O)O)ccc2c1CCC2N(CC(=O)O)Cc1cc(C(=O)NCc2ccc(F)c(F)c2)nc2ccnn12` (stereo not shown) [Example 32, 1-{carboxymethyl-[5-(3,4-difluoro-benzylcarbamoyl)-pyrazolo[1,5-a]pyrimidin-7-ylmethyl]-amino}-4-methyl-indan-5-carboxylic acid]: the IC50 was < 0.2 µM. Consider `O=C1COc2ccc(CNC(=O)c3cc(-c4nn[nH]n4)n4ncc(F)c4n3)cc2N1` [Example 141], for which the 50% inhibitory concentration (IC50) is < 0.2 µM. Turning to `CC(C)(C)n1nnc(-c2cc(C(=O)NCc3ccc4c(c3)NC(=O)CO4)nc3ccnn23)n1` [Example 152], the IC50 was < 0.2 µM. On to `O=C1COc2ccc(CNC(=O)c3cc(-c4nnn(Cc5ccc(C(=O)O)cc5)n4)n4nccc4n3)cc2N1` [Example 160], for which the IC50 is < 0.2 µM. Regarding `CC(C)(C)c1noc(-c2cc(C(=O)NCc3ccc4c(c3)NC(=O)CO4)nc3c(F)cnn23)n1` [Example 163], the IC50 is < 0.2 µM.

As for `O=C1COc2ccc(CNC(=O)c3cc(C(F)(F)F)n4ncnc4n3)cc2N1` [Example 188], the IC50 was 0.201 to 20 µM. As for `N#Cc1cc(C(=O)NCc2ccc3c(c2)NC(=O)CO3)nc2ncnn12` [Example 190], the IC50 lay within 0.201 to 20 µM.

As for `Cc1cc(CNC(=O)c2cc(C(=O)O)n3nccc3n2)ccc1F` [Example 193], the IC50 fell in the range of 0.201 to 20 µM.

As for `Nc1c(N2CCc3ccc(CNC(=O)c4cc(C(=O)O)n5ncnc5n4)cc3C2)c(=O)c1=O` [Example 195], the IC50 lay in the range of 0.201 to 20 µM. Consider `O=C(NCC12CCC(C(=O)O)(CC1)CC2)Nc1cc(C(=O)NCc2ccc(F)cc2)nc2ccnn12` [Example 208], for which the IC50 is < 0.2 µM. As to `O=C(NCc1ccc(F)cc1)c1cc(NC(=O)C23CCC(C(=O)O)(CC2)CC3)n2nccc2n1` [Example 209], the IC50 fell in the range of 0.201 to 20 µM.

As for `Cc1c(C(=O)O)ccc2c1CC[C@@H]2NC(=O)c1cc(C(=O)NCc2ccc3c(c2)NC(=O)CO3)nc2ccccc12` [Example 211], the IC50 is 0.201 to 20 µM.
